Tested on: TFEB
Assay: TFEB nuclear translocation assay, HeLa wt cells
Format: cell-based
Details: Homo sapiens, HeLa, 2 h, 2 hrs compound treatment, Table 1 does not say HeLa wt or TRPML1 KO
In short: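 AC50 derived from the ratio of nuclear to perinuclear ring (−5 μm) anti-TFEB immunofluorescence, imaged at ×20 over four fields per well. HeLa wt or TRPML1 KO cells were exposed to compounds for 2 hrs at 37° C, then PFA-fixed and counterstained with Hoechst.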

Structure (SMILES) | AC50
CN(C)S(=O)(=O)c1ccc(S(=O)(=O)Nc2cccc(Cl)c2N2CCN(C(=O)C(C)(C)C)CC2)cc1 [Compound A-352, N4-{3-chloro-2-[4-(2,2-dimethylpropanoyl)piperazin-1-yl]phenyl}-N1,N1-dimethylbenzene-1,4-disulfonamide] | 2.01 to 8 µM
CN(C)S(=O)(=O)c1ccc(S(=O)(=O)Nc2ccccc2N2CCC(C(C)(C)C)CC2)cc1 [Compound A-353, N4-[2-(4-tert-butylpiperidin-1-yl)phenyl]-N1,N1-dimethylbenzene-1,4-disulfonamide] | ≤ 2 µM
CN(C)S(=O)(=O)c1ccc(S(=O)(=O)Nc2ccccc2N2C3CCC2CN(C(=O)C(C)(C)C)C3)cc1 [Compound A-354, N4-{2-[3-(2,2-dimethylpropanoyl)-3,8-diazabicyclo[3.2.1]octan-8-yl]phenyl}-N1,N1-dimethylbenzene-1,4-disulfonamide] | ≥ 10 µM
CN(C)S(=O)(=O)c1ccc(S(=O)(=O)Nc2ccccc2N2CCC(O)(c3ncccc3F)CC2)cc1 [Compound A-355, N4-{2-[4-(3-fluoropyridin-2-yl)-4-hydroxypiperidin-1-yl]phenyl}-N1,N1-dimethylbenzene-1,4-disulfonamide] | 2.01 to 8 µM
CN(C)S(=O)(=O)c1ccc(C(Nc2cc(Cl)ccc2N2CCOCC2)C(F)(F)F)cc1 (stereo not drawn) [Compound A-356, 4-(1-{[5-chloro-2-(morpholin-4-yl)phenyl]amino}-2,2,2-trifluoroethyl)-N,N-dimethylbenzene-1-sulfonamide] | 2.01 to 8 µM
O=S(=O)(Nc1cc(Cl)ccc1N1CCC2(C1)OCc1ccccc12)c1ccc2c(c1)CCC2 (stereo not drawn) [Compound A-357, N-(5-chloro-2-{3H-spiro[2-benzofuran-1,3′-pyrrolidin]-1′-yl}phenyl)-2,3-dihydro-1H-indene-5-sulfonamide] | ≥ 10 µM
CN(C)S(=O)(=O)c1ccc(S(=O)(=O)Nc2ccccc2N2CCC(c3cccc(F)c3C(=O)O)CC2)cc1 [Compound A-358, 2-(1-{2-[4-(dimethylsulfamoyl)benzenesulfonamido]phenyl}piperidin-4-yl)-6-fluorobenzoic acid] | ≥ 10 µM
CN(C(=O)C1CCN(c2ccccc2NS(=O)(=O)c2ccc(S(=O)(=O)N(C)C)cc2)CC1)C(C)(C)C [Compound A-359, N-tert-butyl-1-{2-[4-(dimethylsulfamoyl)benzenesulfonamido]phenyl}-N-methylpiperidine-4-carboxamide] | ≤ 2 µM
CN(C(=O)C1(C)CCN(c2ccccc2NS(=O)(=O)c2ccc(S(=O)(=O)N(C)C)cc2)CC1)C(C)(C)C [Compound A-360, N-tert-butyl-1-{2-[4-(dimethylsulfamoyl)benzenesulfonamido]phenyl}-N,4-dimethylpiperidine-4-carboxamide] | ≤ 2 µM
CN(C)S(=O)(=O)c1ccc(S(=O)(=O)Nc2ccccc2N2CCC(C)(C(=O)NC(C)(C)C)CC2)cc1 [Compound A-361, N-tert-butyl-1-{2-[4-(dimethylsulfamoyl)benzenesulfonamido]phenyl}-4-methylpiperidine-4-carboxamide] | ≤ 2 µM
O=S(=O)(Nc1cc(Cl)ccc1N1CCCC2(CCCO2)C1)c1ccc2c(c1)CCC2 (stereo not drawn) [Compound A-362, N-(5-chloro-2-{1-oxa-7-azaspiro[4.5]decan-7-yl}phenyl)-2,3-dihydro-1H-indene-5-sulfonamide] | ≤ 2 µM
COCCS(=O)(=O)Nc1cccc(Cl)c1N1CCOCC1 [Compound A-364, N-[3-chloro-2-(morpholin-4-yl)phenyl]-2-methoxyethane-1-sulfonamide] | ≥ 10 µM
O=S(=O)(Cc1ccon1)Nc1cccc(Cl)c1N1CCOCC1 [Compound A-365, N-[3-chloro-2-(morpholin-4-yl)phenyl]-1-(1,2-oxazol-3-yl)methanesulfonamide] | ≥ 10 µM
O=C(Nc1cccc(Cl)c1N1CCOCC1)c1ccc2c(c1)CCC2 [Compound A-366, N-[3-chloro-2-(morpholin-4-yl)phenyl]-2,3-dihydro-1H-indene-5-carboxamide] | ≥ 10 µM
COc1cccc(S(=O)(=O)Nc2cccc(Cl)c2N2CCOCC2)c1 [Compound A-367, N-[3-chloro-2-(morpholin-4-yl)phenyl]-3-methoxybenzene-1-sulfonamide] | 2.01 to 8 µM
O=S(=O)(Cc1ccc(F)c(Cl)c1)Nc1cccc(Cl)c1N1CCOCC1 [Compound A-368, N-[3-chloro-2-(morpholin-4-yl)phenyl]-1-(3-chloro-4-fluorophenyl)methanesulfonamide] | 2.01 to 8 µM
O=S(=O)(Nc1cccc(Cl)c1N1CCOCC1)c1cnn2c1CCCC2 [Compound A-369, N-[3-chloro-2-(morpholin-4-yl)phenyl]-4H,5H,6H,7H-pyrazolo[1,5-a]pyridine-3-sulfonamide] | ≥ 10 µM
CN(C)C1Cc2ccccc2C12CCN(c1ccccc1NS(=O)(=O)c1ccc(S(=O)(=O)N(C)C)cc1)CC2 (stereo not drawn) [Compound A-370, N4-{2-[2-(dimethylamino)-2,3-dihydrospiro[indene-1,4′-piperidin]-1′-yl]phenyl}-N1,N1-dimethylbenzene-1,4-disulfonamide] | ≤ 2 µM

Structure (SMILES) | AC50
COc1ccc(CN2C(=O)C(c3ccc(Cl)cc3F)Oc3ccccc32)cc1 (stereo not drawn) [Compound A-371, 2-(4-chloro-2-fluorophenyl)-4-(4-methoxybenzyl)-2H-benzo[b][1,4]oxazin-3(4H)-one] | ≤ 2 µM
O=S(=O)(Nc1ccccc1N1CCCC1)c1ccc2c(c1)OCCCO2 [Compound A-372, N-[2-(pyrrolidin-1-yl)phenyl]-3,4-dihydro-2H-1,5-benzodioxepine-7-sulfonamide] | 2.01 to 8 µM
O=S(=O)(Nc1cccc(Cl)c1N1CCOCC1)c1cccc(C2CC2)c1 [Compound A-390, N-[3-chloro-2-(morpholin-4-yl)phenyl]-3-cyclopropylbenzene-1-sulfonamide] | ≤ 2 µM
O=S(=O)(Nc1cccc(Cl)c1N1CCOCC1)c1ccc(C2CC2)cc1 [Compound A-391, N-[3-chloro-2-(morpholin-4-yl)phenyl]-4-cyclopropylbenzene-1-sulfonamide] | 2.01 to 8 µM
O=S(=O)(Nc1cccc(Cl)c1N1CCOCC1)c1ccccc1C1CC1 [Compound A-392, N-[3-chloro-2-(morpholin-4-yl)phenyl]-2-cyclopropylbenzene-1-sulfonamide] | 2.01 to 8 µM
O=S(=O)(CC1CCC2(CCCC2)O1)Nc1cccc(Cl)c1N1CCOCC1 (stereo not drawn) [Compound A-393, N-[3-chloro-2-(morpholin-4-yl)phenyl]-1-{1-oxaspiro[4.4]nonan-2-yl}methanesulfonamide] | 8.01 to 9.99 µM
O=S(=O)(CC12CC3CC(CC(C3)C1)C2)Nc1cccc(Cl)c1N1CCOCC1 [Compound A-394, 1-(adamantan-1-yl)-N-[3-chloro-2-(morpholin-4-yl)phenyl]methanesulfonamide] | 2.01 to 8 µM
O=S(=O)(Nc1cc(Cl)ccc1N1CCC2(COC2)C1)c1ccc2c(c1)CCC2 [Compound A-395, N-(5-chloro-2-{2-oxa-6-azaspiro[3.4]octan-6-yl}phenyl)-2,3-dihydro-1H-indene-5-sulfonamide] | ≥ 10 µM
O=S(=O)(Nc1cc(Cl)ccc1N1CC2(CCC2)OC2(CCC2)C1)c1ccc2c(c1)CCC2 [Compound A-396, N-(5-chloro-2-{5-oxa-11-azadispiro[3.1.3^6.3^4]dodecan-11-yl}phenyl)-2,3-dihydro-1H-indene-5-sulfonamide] | ≤ 2 µM
O=S(=O)(Nc1cc(Cl)ccc1N1CC2(CCC2)C1C1CCCO1)c1ccc2c(c1)CCC2 (stereo not drawn) [Compound A-397, N-{5-chloro-2-[1-(oxolan-2-yl)-2-azaspiro[3.3]heptan-2-yl]phenyl}-2,3-dihydro-1H-indene-5-sulfonamide] | 2.01 to 8 µM
CN1Cc2ccccc2C2(CCN(c3ccccc3NS(=O)(=O)c3ccc(S(C)(=O)=O)cc3)CC2)C1 [Compound A-398, 4-methanesulfonyl-N-(2-{2-methyl-2,3-dihydro-1H-spiro[isoquinoline-4,4′-piperidin]-1′-yl}phenyl)benzene-1-sulfonamide; formic acid] | 2.01 to 8 µM
CN(C)S(=O)(=O)c1ccc(S(=O)(=O)Nc2ccccc2N2CCN(C(=O)C34CC5CC(CC(C5)C3)C4)CC2)cc1 [Compound A-399, N4-{2-[4-(adamantane-1-carbonyl)piperazin-1-yl]phenyl}-N1,N1-dimethylbenzene-1,4-disulfonamide] | ≤ 2 µM
CN(C)S(=O)(=O)c1ccc(S(=O)(=O)Nc2cc(Cl)ccc2N2CCN(C(=O)C(C)(C)C)CC2)cc1 [Compound A-400, N4-{5-chloro-2-[4-(2,2-dimethylpropanoyl)piperazin-1-yl]phenyl}-N1,N1-dimethylbenzene-1,4-disulfonamide] | 2.01 to 8 µM
CN(C)S(=O)(=O)c1ccc(S(=O)(=O)Nc2ccccc2N2CCC(O)(c3ccncc3F)CC2)cc1 [Compound A-401, N4-{2-[4-(3-fluoropyridin-4-yl)-4-hydroxypiperidin-1-yl]phenyl}-N1,N1-dimethylbenzene-1,4-disulfonamide] | ≥ 10 µM
CS(=O)(=O)c1ccc(S(=O)(=O)Nc2ccccc2N2CCC3(CC2)OCCc2ccccc23)cc1 [Compound A-402, N-(2-{3,4-dihydrospiro[2-benzopyran-1,4′-piperidin]-1′-yl}phenyl)-4-methanesulfonylbenzene-1-sulfonamide] | 2.01 to 8 µM
CS(=O)(=O)c1ccc(S(=O)(=O)Nc2ccccc2N2CCC3(CC2)CN(Cc2ccncc2)c2cc(F)ccc23)cc1 [Compound A-403, N-(2-{6-fluoro-1-[(pyridin-4-yl)methyl]-1,2-dihydrospiro[indole-3,4′-piperidin]-1′-yl}phenyl)-4-methanesulfonylbenzene-1-sulfonamide] | 2.01 to 8 µM
CN1CCC(N(C)S(=O)(=O)c2ccc(NC(=O)COc3ccccc3-c3ccccc3)cc2)CC1 [Compound A-404, 2-{[1,1′-biphenyl]-2-yloxy}-N-{4-[methyl(1-methylpiperidin-4-yl)sulfamoyl]phenyl}acetamide] | 2.01 to 8 µM
O=S(=O)(Nc1cc(Cl)ccc1N1CCCC12CCCOC2)c1ccc2c(c1)CCC2 (stereo not drawn) [Compound A-405, N-(5-chloro-2-{7-oxa-1-azaspiro[4.5]decan-1-yl}phenyl)-2,3-dihydro-1H-indene-5-sulfonamide] | 2.01 to 8 µM

Reference: US20230104936A1, “TRPML MODULATORS” (Casma Therapeutics, Inc., priority 2019, published 2023)
